Here are results for five molecules from patent publication US20220257722A1, “COMPOSITIONS AND METHODS OF TREATING AND PREVENTING SYSTEMIC COMPLICATIONS OF ACUTE ILLNESS” (United States Government As Represented By The Department …, priority 2019, published 2022).

Data set [1] deals with rat jejunal mucosa. The data set can be described thus: LPS mucosal-to-serosal transport in Ussing-chambered rat jejunal mucosa (LAL test). The format is cell-based. To be noted: for inhibitory effect of GLP-2 on LPS transport during OA/TCA exposure: inhibitor serosal 5 min before GLP-2 100 nM + NVP-728 10 μM; for amount of LPS transport at t=15 min (prior to OA/TCA exposure), in presence of GLP-2 + NVP-728: inhibitor serosal before GLP-2 + NVP-728; for OA/TCA-augmented LPS transport (t=30-45 min): mucosal LPS 10 μg/ml + OA 30 mM/TCA 0.1 mM; for OA/TCA-augmented LPS transport (t=30-45 min) / LPS transport at t=15 min (LPS alone, absence of OA/TCA): drug added 10 or 15 min before LPS; for LPS transport at t=15 min (LPS alone, absence of OA/TCA): mucosal LPS 10 μg/ml. As to the method: Short-circuit current measurements in Ussing chambered preparations. Mucosa-submucosa preparations were prepared from the mid-jejunum (˜20 cm from the pyloric ring) by muscle stripping using fine forceps under a stereomicroscope. Two or four preparations were prepared from one animal. The tissue was then mounted between two hemi-sliders with an aperture=0.3 cm^2 (Physiologic Instruments, San Diego, Calif., USA). Chambers were bathed with serosal and luminal bathing solutions in a volume of 4 ml each, maintained at 37° C. using a water recirculating heating system. The serosal Krebs-Ringer solution contained (in mM) NaCl, 117; KCl, 4.7; MgCl2, 1.2; NaH2PO4, 1.2; CaCl2, 2.5; NaHCO3, 25; glucose, 11; and bubbled with 95% O2-5% CO2 to maintain pH at 7.4. The luminal bathing solution contained NaCl, 136; KCl, 2.6; CaCl2, 1.8; HEPES, 10 (pH 7.0); mannitol, 11; and bubbled with 100% O2. The tissues were short-circuited by a voltage clamp (VCC MC6, Physiologic Instruments) at zero potential difference with automatic compensation for solution resistance. Short-circuit current (Isc) was continuously measured with tissue conductance (Gt) and TEER (Ω·cm^2) determined every 20 sec in order to assess the tissue integrity during the LPS and lipid exposure. The current was recorded by the DataQ system (Physiologic Instruments). IND (10 μM) was added to the serosal bath to eliminate the effects of endogenous prostaglandin production. The tissues were stabilized for ˜30 min before the addition of test chemicals.
LPS movement from mucosal to serosal solution. LPS movement m-to-s was assessed using a LAL test kit (Pierce Chromogenic Endotoxin Quant Kit, Pierce Biotechnology, Rockford, Ill., USA), which eliminates non-specific detection of (1,3)-β-D-glucan, then reduces false-positive LPS measurements. After tissue stabilization, time was set as t=0 min. Fifty μl of the serosal solution was collected at 0 min as a blank sample, followed by collection at t=15, 30 and 45 min. At t=0 min, LPS (10 μg/ml) was added into the mucosal solution. Vehicle (PBS alone), TCA alone (0.1 mM) in PBS or OA (3, 10, 30 mM) with TCA (0.1 mM) in PBS was added into the mucosal solution at t=15 min. The tissues were pretreated with drugs 10 or 15 min before the addition of LPS (i.e. at t=−10 or −15 min). The collected serosal solutions were kept at −80° C. until use. LPS content in the serosal solutions was measured with the LAL test according to the manufacturer's protocol. The value of background at t=0 min was subtracted and the serosal LPS appearance was expressed as Δ[LPS] (EU/ml). In some experiments, FITC-LPS (10 μg/ml) was used instead of LPS. Serosal FITC-LPS content was assessed by FITC fluorescence intensity measurement using a multi-mode microplate reader (Synergy-2, BioTek Instruments, Inc., Winooski, Vt., USA). To detect macromolecule m-to-s movement across the mucosa, FD4 (0.1 mM) was applied into the mucosal bath and serosal FD4 content was assessed by FITC fluorescence intensity measurement.
Ussing chamber study: drug treatment. The following drugs were pretreated by addition to the mucosal (m) or serosal (s) bath 10 or 15 min before LPS addition to the mucosal bath: the lipid raft inhibitor MβCD (1 mM, m), the CD36 inhibitor SSO (0.1 mM, m), the muscarinic agonist CCh (10 μM, s), a competitive substrate for IAP (IAP inhibitor) GP (10 mM, m) (47), GLP-2 (100 nM, s), the dipeptidyl peptidase-4 (DPP4) inhibitor NVP-728 (10 μM, s) (36), the stable GLP-2 analog TDG (100 nM) (13), the insulin-like growth factor-1 (IGF-1) receptor tyrosine kinase inhibitor NVP-AEW-541 (10 μM, s) (22), the epidermal growth factor (EGF) tyrosine kinase inhibitor PD153035 (1 μM, s) (6), the nitric oxide (NO) synthase (NOS) inhibitor L-NAME (0.1 mM, s) and the selective VPAC1 antagonist PG97-269 (1 μM) (26).

Data set [2] relates to rat jejunal mucosa. Briefly: LPS mucosal-to-serosal transport in rat jejunal mucosa read by TLR4 reporter cell assay. The format is cell-based. To be noted: same samples as FITC measurement; SSO 0.1 mM or MβCD 1 mM. As to the method: TLR-4 reporter cell assay. Since the LAL test may overestimate LPS levels due to nonspecific detection of […] (66), and FITC-LPS method measures LPS fluorescence without regard to the functional activity of LPS, experiments were carried out to determine whether the samples contained intact, functional LPS that is a preferential TLR-4 ligand. In order to confirm that intact LPS was measured in the samples used for measurements in the Ussing chamber study, a TLR4 reporter cell assay was used that consists of HEK293 cells co-transfected with murine TLR4, myeloid differentiation 2 and CD14 co-receptor genes and an inducible secreted embryonic alkaline phosphatase (SEAP) reporter gene with nuclear factor-kappa B (NF-kB) and activator protein 1 (AP-1) binding motifs (HEK-Blue mTLR-4, InvivoGen, San Diego, Calif.). Cells were harvested in a 96-well plate with standards and samples for 24 hr. The presence of LPS was detected as induced SEAP activity in the medium using HEK-Blue Detection (InvivoGen) by measuring absorbance at 655 nm with Synergy-2 24 hrs after the addition of standards and samples, according to the manufacturer's protocol. Ultrapure LPS from E. coli 055:B5 (LPS-B5 Ultrapure, InvivoGen) was used as standard at a range of 0.01-100 ng/ml.

Data set [3] deals with rat jejunal mucosa. The data set can be described thus: FITC-LPS mucosal-to-serosal transport in Ussing-chambered rat jejunal mucosa (FITC fluorescence). The format is cell-based. The conditions noted are these: mucosal FITC-LPS 10 μg/ml; SSO 0.1 mM or MβCD 1 mM. As to the method:
Short-circuit current measurements in Ussing chambered preparations. Mucosa-submucosa preparations were prepared from the mid-jejunum (˜20 cm from the pyloric ring) by muscle stripping using fine forceps under a stereomicroscope. Two or four preparations were prepared from one animal. The tissue was then mounted between two hemi-sliders with an aperture=0.3 cm^2 (Physiologic Instruments, San Diego, Calif., USA). Chambers were bathed with serosal and luminal bathing solutions in a volume of 4 ml each, maintained at 37° C. using a water recirculating heating system. […] Short-circuit current (Isc) was continuously measured with tissue conductance (Gt) and TEER (Ω·cm^2) determined every 20 sec in order to assess the tissue integrity during the LPS and lipid exposure. The current was recorded by the DataQ system (Physiologic Instruments). […]
LPS movement from mucosal to serosal solution. LPS movement m-to-s was assessed using a LAL test kit (Pierce Chromogenic Endotoxin Quant Kit, Pierce Biotechnology, Rockford, Ill., USA), which eliminates non-specific detection of (1,3)-β-D-glucan, then reduces false-positive LPS measurements. […] LPS content in the serosal solutions was measured with the LAL test according to the manufacturer's protocol. The value of background at t=0 min was subtracted and the serosal LPS appearance was expressed as Δ[LPS] […]

Data set [4] has as its system murine model of pancreatitis. The data set can be described thus: Cerulein-induced acute pancreatitis in mice: organ cytokines, PV LPS, FD4 uptake, histology. The format is in vivo, C57BL/6 mice. As to the method:
Methods. Pancreatitis was induced in C57BL/6 male and female mice at 8-10 weeks of age by multiple injections of cerulein (50 μg/kg, ip, hourly, 8 times). Samples (e.g., PV and abdominal arterial blood) were collected 0, 18, and 24 hrs after the final injection of cerulein. Tissues were removed and stored for histology and real-time polymerase chain reaction (PCR)-based expression analysis. TDG, (500 μg/kg, ip) was given 0 and 18 hrs after the final injection of cerulein, followed by sampling 24 hrs after the final injection of cerulein. Proinflammatory cytokines was assessed by real-time PCR; PV LPS levels were measured using the limulus amebocyte lysate (LAL) test.

For data set [5] the following is noted: cited from earlier work.
Where [6] appears, read: 24 hrs after cerulein treatment.

On to `COC(=O)[C@@H](N)CCCNC(=N)N[N+](=O)[O-]` [L-NAME, Nω-nitro-L-arginine methyl ester], for which, in the data set with rat jejunal mucosa [1], the “inhibitory effect of GLP-2 on LPS transport during OA/TCA exposure” value is given as “reversed” and the “amount of LPS transport at t=15 min (prior to OA/TCA exposure), in presence of GLP-2 + NVP-728” value is recorded as “no effect”.
Turning to `CCCCCCCC/C=C\CCCCCCCC(=O)ON1C(=O)CC(S(=O)(=O)O)C1=O` (centres unmarked) [SSO, sulfosuccinimidyl oleate], the “LPS m-to-s transport during OA/TCA exposure by TLR4 reporter cell assay” value in the data set with rat jejunal mucosa [2] was “abolished”. Besides, in the data set with rat jejunal mucosa [1], the “OA/TCA-augmented LPS transport (t=30-45 min)” value (from here on “OA/TCA-augmented LPS transport”) is recorded as “abolished” and the “LPS transport at t=15 min (LPS alone, absence of OA/TCA)” value is “no effect”. Also, the “OA/TCA-increased serosal LPS content measured by FITC fluorescence intensity” value with rat jejunal mucosa [3] is “abolished”.
Take `CC[C@H](C)[C@H](NC(=O)[C@H](Cc1ccccc1)NC(=O)[C@H](CC(=O)O)NC(=O)[C@H](CCCNC(=N)N)NC(=O)[C@H](C)NC(=O)[C@H](C)NC(=O)[C@H](CC(C)C)NC(=O)[C@H](CC(N)=O)NC(=O)[C@H](CC(=O)O)NC(=O)[C@H](CC(C)C)NC(=O)[C@@H](NC(=O)[C@@H](NC(=O)[C@H](CC(N)=O)NC(=O)[C@H](CCSC)NC(=O)[C@H](CCC(=O)O)NC(=O)[C@H](CC(=O)O)NC(=O)[C@H](CO)NC(=O)[C@H](Cc1ccccc1)NC(=O)[C@H](CO)NC(=O)CNC(=O)[C@H](CC(=O)O)NC(=O)CNC(=O)[C@@H](N)Cc1c[nH]cn1)[C@@H](C)O)[C@@H](C)CC)C(=O)N[C@@H](CC(N)=O)C(=O)N[C@@H](Cc1c[nH]c2ccccc12)C(=O)N[C@@H](CC(C)C)C(=O)N[C@H](C(=O)N[C@@H](CCC(N)=O)C(=O)N[C@H](C(=O)N[C@@H](CCCCN)C(=O)N[C@H](C(=O)N[C@H](C(=O)N[C@@H](CC(=O)O)C(=O)O)[C@@H](C)O)[C@@H](C)CC)[C@@H](C)O)[C@@H](C)CC` [TDG]: in the data set with rat jejunal mucosa [1], the “OA/TCA-augmented LPS transport” value is given as “inhibited”. For the same molecule, the “PV LPS levels” value in data set [4] (18 and 24 hrs after cerulein treatment, LAL test, TDG 500 μg/kg ip) is recorded as “significantly reduced”. The “PV FD4 levels” value in data set [4] (18 and 24 hrs after cerulein treatment, TDG 500 μg/kg ip) was “significantly reduced”. Also, in data set [4] (setting [6]), the “histological changes in the pancreas” value is “no effect” and the “lung inflammation (histology)” value was “reduced”. For the same molecule, the “Plasma TNFα levels” value in data set [4] (24 hrs after cerulein treatment, TDG 500 μg/kg ip) is reported as “reversed”. Also, the “increased expression of IL-1β and IL-6 in the pancreas” value in data set [4] (TDG 500 μg/kg ip 0 and 18 hrs after final cerulein) is on record as “no effect”. The elevated lipase levels entry in data set [4] (TDG 500 μg/kg ip 0 and 18 hrs after final cerulein, plasma) is “no effect”. For the same molecule, the “inflammatory cytokine expression in the lung” value in data set [4] (TDG 500 μg/kg ip 0 and 18 hrs after final cerulein, sampling 24 hrs, real-time PCR) is “significantly reduced”. The elimination half-life result in data set [5] (in humans) was “about 2 hours”. Further, the “serum t1/2” value in data set [5] (reference [44]) was approximately 2 h.
Take “[Ac-His^1, D-Phe^2, Lys^15, Arg^16, Leu^27]-VIP(1-7)-GRF(8-27) (HFDAVFTNSYRKVLKRLSARKLLQDIL; HELM PEPTIDE1{[ac].H.[dF].D.A.V.F.T.N.S.Y.R.K.V.L.K.R.L.S.A.R.K.L.L.Q.D.I.L.[am]}$$$$V2.0; SMILES CC[C@H](C)[C@H](NC(=O)[C@H](CC(=O)O)NC(=O)[C@H](CCC(N)=O)NC(=O)[C@H](CC(C)C)NC(=O)[C@H](CC(C)C)NC(=O)[C@H](CCCCN)NC(=O)[C@H](CCCNC(=N)N)NC(=O)[C@H](C)NC(=O)[C@H](CO)NC(=O)[C@H](CC(C)C)NC(=O)[C@H](CCCNC(=N)N)NC(=O)[C@H](CCCCN)NC(=O)[C@H](CC(C)C)NC(=O)[C@@H](NC(=O)[C@H](CCCCN)NC(=O)[C@H](CCCNC(=N)N)NC(=O)[C@H](Cc1ccc(O)cc1)NC(=O)[C@H](CO)NC(=O)[C@H](CC(N)=O)NC(=O)[C@@H](NC(=O)[C@H](Cc1ccccc1)NC(=O)[C@@H](NC(=O)[C@H](C)NC(=O)[C@H](CC(=O)O)NC(=O)[C@@H](Cc1ccccc1)NC(=O)[C@H](Cc1c[nH]cn1)NC(C)=O)C(C)C)[C@@H](C)O)C(C)C)C(=O)N[C@@H](CC(C)C)C(N)=O) [PG97-269]”: in the data set with rat jejunal mucosa [1], the “inhibitory effect of GLP-2 on LPS transport during OA/TCA exposure” value is listed as “reversed” and the “amount of LPS transport at t=15 min (prior to OA/TCA exposure), in presence of GLP-2 + NVP-728” value was “no effect”.
Turning to methyl-β-cyclodextrin [MβCD], the “LPS m-to-s transport during OA/TCA exposure by TLR4 reporter cell assay” value with rat jejunal mucosa [2] was “abolished”. In the data set with rat jejunal mucosa [1], the “OA/TCA-augmented LPS transport” value is given as “inhibited” and the “LPS transport at t=15 min (LPS alone, absence of OA/TCA)” value is recorded as “no effect”. Moreover, in the data set with rat jejunal mucosa [3], the “OA/TCA-increased serosal LPS content measured by FITC fluorescence intensity” value was “abolished”.
